# Test system: Human pancreatic carcinoma cell line AsPC-1 (doxorubicin resistant)
# Assay: XTT assay of anticancer agent sensitivity in doxorubicin-resistant AsPC-1 cells
# Type: cell-based
# Details: 48 hrs, FIG. 1
# Method: Human pancreatic carcinoma cell line AsPC-1 (doxorubicin resistant) was purchased from ATCC (American Type Culture Collection, Manassas, Va., USA). AsPC-1 cell lines were maintained in media supplemented with 10% fetal bovine serum (Gibco BRL) at 37° C. in a humid 5% CO2 atmosphere, and subcultured every two or three days. XTT assay was conducted to examine whether chlorogenic acid increases the anticancer agent sensitivity. A modified MTT assay, XTT assay is a colorimetric method that determines the relative number of living cells, after treating cells with a compound degraded by a specific enzyme. AsPC-1 cells were seeded in 96-well plates (2×10^4 per well), and cultured for 24 hrs. The cells were treated with 0, 5, and 10 μM of doxorubicin, and 0, 5, 10, and […] of chlorogenic acid, and incubated for 48 hrs. 0.1 ml of active solution and 5 ml of XTT (2,3-Bis{2-methoxy-4-nitro-5[(sulfenylamino) carbonyl]-2H-tetrazolium-hydroxide}) were added to the 96-well plates, and 50 μl of reaction solution was added to each well, followed by incubation for 2 hrs. The plates were gently shaken for staining, and the absorbance was measured at 450 nm using a VERSAmax220 Automatic Microplate Reader (Molecular Devices Corp.).
compound,measurement,setting,value
"O=C(/C=C/c1ccc(O)c(O)c1)O[C@@H]1C[C@](O)(C(=O)O)C[C@@H](O)[C@H]1O [chlorogenic acid, 3-[[3-(3,4-dihydroxyphenyl)-1-oxo-2-propenyl]oxy]-1,4,5-trihydroxycyclohexanecarboxylic acid]",dependence of cancer cell viability on chlorogenic acid concentration,combination with doxorubicin,"decreased, as the concentration of chlorogenic acid was increased"
same,"decrease of viability of cancer cells with chlorogenic acid plus anticancer agent, compared to anticancer agent alone","doxorubicin 0, 5, 10 μM with chlorogenic acid 0, 5, 10, 20μ, absorbance 450 nm",30%
